Laboratory results as given in paper PMC7318222, “A Family of Water‐Immiscible, Dipolar Aprotic, Diamide Solvents from Succinic Acid” (Chemsuschem, 2020).

These compounds were tested on TCF (assay: TCF CALUX assay (Wnt signaling)). Settings: cell signaling pathway assay, 24 h exposure.
Type: cell-based, human
Design: key: –: no effect observed up to the highest test concentration
Source text: Six of the CALUX assays (TCF through p53) detect activation of several cellular signaling pathways, which are indicative of general stress and acute toxicity, but also a range of more specific types of toxicity, including reproductive toxicity. […]
2-methylimidazole 99.0%, zinc(II) nitrate hexahydrate ≥99.0%, para-cymene 99.0%, 1,4-dioxane 99.8% (anhydrous), 4-nitroaniline ≥99.0%, 1-octanol ≥99.0%, diglyme ≥99.0%, DMSO-d6 (99.8% D) and chloroform-d (99.8% D) were purchased from Sigma-Aldrich. Toluene ≥99.0%, hexane ≥99.5%, DCM ≥99.5%, chloroform ≥99.5%, DMSO ≥99.0% were purchased from VWR. N,N-diethyl-4-nitroaniline ≥98.0% was purchased from Alfa Aeser. Cyrene was supplied by Circa group. N-butylpyrrolidinone was supplied by Eastman chemicals. N,N-dimethylformamide 99.9% and N,N-dimethylacetamide 99.9% were purchased from Fischer. The flakes of Ultrason® E3020 P Polyarylethersulfone of 55,000 Da were obtained from INGE.BASF, Germany. The CALUX cell lines have been described previously.[1] They are based on human U2-OS cells (ATCC, HTB-96) stably transfected with an expression construct for the full-length human receptor under investigation, and a reporter construct consisting of multimerized responsive elements for the cognate receptor coupled to a minimal promoter element (TATA) and a luciferase gene. Cells were maintained as described previously,[2] using cell culture media and supplements from Fisher Scientific as described in the experimental procedures section. […]
In vitro reporter gene assays
The automated CALUX assays were carried out similarly as described earlier,[12] with some adaptations. In brief, the assay was performed in CO2 independent medium (Fisher Scientific, […]
supplement (Fisher Scientific, 11574466), 10 U/mL penicillin and 10 µg/mL streptomycin. A cell suspension in assay medium was made of 1 × 10^5cells/mL, and white 384-wells plates were seeded with 30 µl cell suspension/well. After 24 h, exposure medium was prepared. A dilution series in 0.5log unit increments of each test compound (in DMSO) was added to a 96-wells plate containing assay medium (2% v/v). Of this exposure mixture, 30 µl was added to the assay plates containing the CALUX cells, resulting in a final DMSO concentration of 1%. Additionally, DMSO blanks and a full dose response curve of the relevant reference compound were included on each plate. All samples were tested in triplicate. The preparation of the compound dilution series as well as the exposure of the cells were performed on a Hamilton StarLET liquid handling robot coupled to a Cytomat incubator.
Directly after exposure, plates were sealed with non-breathing plate seals (Plate sealer, easy seal transparent; Greiner-Bio-One, 676001). After 24 h the exposure medium was removed using an EL406 washer-dispenser (BioTek) and 10 µl/well triton lysisbuffer was added by the EL406.
Subsequently, the luciferase signal was measured in a luminometer (InfinitePro coupled to a Connect Stacker, both TECAN). In order to be able to detect receptor antagonism, several assays were also performed in antagonistic mode. The assay procedure was as described above, with the only exception that the EC50 concentration of the reference agonist was present during the exposure.
The luminometer data was analysed as follows; the average of the triplicate wells was determined, and the average blank (DMSO) value was subtracted. […] For antagonist- and cytotoxicity experiments, PC20 values were determined instead, which was defined […]
In the case of `CCCCN(CC)C(=O)CCC(=O)N(CC)CCCC` [EBSA, N,N′‐diethyl‐N,N′‐dibutylsuccindiamide], the “LEC TCF” value is reported as “–”. In the case of `CN1CCCC1=O` [NMP, N‐methyl‐2‐pyrrolidone, reference compound], the “LEC TCF” value is reported as −2.1 Log M. For `CCCCN(C)C(=O)CCC(=O)N(C)CCCC` [MBSA, N,N′‐dimethyl‐N,N′‐dibutylsuccindiamide], the “LEC TCF” value was “–”. With `CCCCN(CCCC)C(=O)CCC(=O)N(CCCC)CCCC` [TBSA, N,N,N′,N′‐tetrabutylsuccindiamide] the “LEC TCF” value was “–”. With `CCCCN1CCCC1=O` [NBP, N‐Butylpyrrolidinone, reference compound] the “LEC TCF” value was “–”.
